Measured values as given in BindingDB's records for doi:10.1016/S0960-894X(01)81219-1 (1993).

Assay: The inhibitory constant was evaluated against Endothelin A receptor in rabbit renal artery tissue

IC50: 0.13 µM
Compound: CC[C@H](C)[C@H](NC(=O)[C@H](CC(=O)O)NC(=O)[C@H](CCCN)NC(=O)[C@@H](Cc1c[nH]c2ccccc12)NC(C)=O)C(=O)N[C@H](C(=O)N[C@@H](Cc1c[nH]c2ccccc12)C(=O)O)[C@@H](C)CC [(S)-3-{(S)-2-[(R)-2-Acetylamino-3-(1H-indol-3-yl)-propionylamino]-5-amino-pentanoylamino}-N-((1S,2R)-1-{(1S,2R)-1-[(S)-1-carboxy-2-(1H-indol-3-yl)-ethylcarbamoyl]-2-methyl-butylcarbamoyl}-2-methyl-butyl)-succinamic acid]
